# From article PMC5951806, “Rapid labelling and covalent inhibition of intracellular native proteins using ligand-directed N-acyl-N-alkyl sulfonamide” (Nature Communications, 2018)
# What was measured:
# Hsp90 = details: read-out: reported IC50; cited from earlier work
# intracellular Hsp90 = details: SKBR3 cells, pre-treated 1–10 µM for 3 h, washed, then 11 0.5 µM
# Text: The cells were washed, lysed and analysed by in-gel fluorescence imaging. […] Error bars represent s.d., n = 3
# [1] = test system: Hsp90-client proteins HER2, cRaf, Akt and pAkt; assay: Western blotting of Hsp90 client proteins
# Experimental: We also examined the expression levels of client proteins of Hsp90 (Fig. 6e, f).
# The cells were washed with PBS, and lysed with RIPA buffer containing 1% protease inhibitor cocktail. The lysed samples were centrifuged (15 200 × g, 10 min at 4 °C). The protein concentrations of supernatant were analysed by BCA assay, and the normalised lysates were mixed with 1/4 volume of 5 × sample buffer containing 250 mM DTT and vortexed for 1 h at room temperature.
# SKBR3 cells = assay: Cell viability assay (WST-8)
# Experimental: The cell viability was assessed using Cell Counting Kit-8 (Dojin).
structure (smiles),measurement,setting,value
CC(C)NCCCn1c(Sc2cc3c(cc2I)OCO3)nc2c(N)ncnc21 [PU-H71],IC50,Hsp90,[…]
same,blocking of fluorescent labelling of Hsp90 by 11 after washout,intracellular Hsp90,failed to block the labelling reaction
same,western blotting bands of Hsp90-client proteins relative to vehicle,"[1]; SKBR3, 1 μM, 24 h without washing",dramatically decreased
same,Hsp90-client protein levels after washout,"[1]; SKBR3, 3 h treatment, washing, further 21 h",did not significantly affect the band intensities
same,cytotoxicity / growth inhibitory effect after washout,"SKBR3 cells; SKBR3, 3 h treatment, washing, further 69 h",almost abolished the cytotoxicity
same,cytotoxicity,"SKBR3 cells; SKBR3, long-term incubation for 72 h",remarkable cytotoxicity
